# Source: paper PMC12112332, “Characterization of Novel and Known Activators of Cannabinoid Receptor Subtype 2 Reveals Mixed Pharmacology That Differentiates Mycophenolate Mofetil and GW-842,166X from MDA7” (International Journal of Molecular Sciences, 2025)
# Like-named read-outs stand apart in the source and are kept apart here.
# Tests used:
# [1] = molecular target: T1, rat CB2 (Rattus norvegicus, UniProt Q9QZN9); assay: [3H]CP55,940 radioligand competition binding, membranes of HEK/GIRK cells expressing rat CB2; design: expressed in transfected cells; host or cells: HEK293 cells stably co-expressing GIRK1/2 channels; settings: for rCB2 Binding Affinity pKi ± SEM: 0.5 nM [3H]CP55,940, equilibrium; for rCB2 Binding % Max ± SEM: % of specific [3H]CP55,940 binding
# T1 sequence (Q9QZN9 1-360): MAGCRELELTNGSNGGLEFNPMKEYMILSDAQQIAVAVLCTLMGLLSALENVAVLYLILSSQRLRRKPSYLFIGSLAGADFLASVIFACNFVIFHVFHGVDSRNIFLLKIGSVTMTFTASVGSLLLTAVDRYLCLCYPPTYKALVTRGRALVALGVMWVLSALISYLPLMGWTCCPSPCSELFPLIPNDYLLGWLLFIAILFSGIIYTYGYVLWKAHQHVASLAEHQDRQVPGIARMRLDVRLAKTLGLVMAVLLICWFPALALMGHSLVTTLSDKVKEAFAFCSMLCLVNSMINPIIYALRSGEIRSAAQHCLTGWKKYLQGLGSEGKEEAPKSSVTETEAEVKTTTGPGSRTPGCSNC
# Text: Agonists that bind to the receptor at the site occupied by the endogenous ligand (2-AG in this case) are considered orthosteric agonists. It is also possible for an agonist to bind and activate a receptor via a site other than the orthosteric site; these ligands are classified as allosteric agonists. To characterize the nature of the agonist activity of mycophenolate mofetil, we tested its ability to bind to the receptor in equilibrium binding assays using membranes harvested from cells expressing rCB2 using the radioligand [^3H]CP55,940 [40, 60]. CP55,940 has an affinity for both CB1 and CB2 receptors in the low nM range and is reported to bind to the site occupied by 2-AG [61].
# Competition binding concentration–response curves were obtained in the presence of 0.5 nM [^3H]CP55,940 using membranes harvested from HEK/GIRK cells expressing rCB2. Data represent the mean ± SEM of three independent experiments run in triplicate. Data are plotted as a percentage of specific [^3H]CP55,940 binding. Non-specific binding was determined in the presence of 10 µM CP55,940.
# Membranes were made from HEK/GIRK cells stably expressing rat CB2. Radioligand competition binding assays were performed as previously described, with minor modifications. In brief, compounds were serially diluted into assay buffer with 0.1% bovine serum albumin (BSA) and added to each well of a 96-well plate, along with 20 μg/well cell membrane and approximately 500 pM [^3H]-CP55,940 (specific activity = 104 Ci/mmol, PerkinElmer, Waltham, MA, USA). Following a 3-h incubation period on a shaker at room temperature, membrane-bound ligand was separated from free ligand by filtration through glass fiber 96-well filter plates (Unifilter-96, GF/B; PerkinElmer, Waltham, MA, USA). Forty microliters of scintillation fluid were added to each well, and membrane-bound radioactivity was determined by scintillation counting (Microbeta2; Revvity, Waltham, MA, USA). Nonspecific binding was determined using 10 μM of cold CP55,940.
# [2] = molecular target: Human CB2 (Homo sapiens, UniProt P34972); assay: cAMP inhibition assay (HitHunter cAMP XS+, Eurofins) in human CB2 cells; format: cell-based; settings: for hCB2 cAMP (−) CP55,940 % Max: absence of CP55,940; for hCB2 cAMP (−) CP55,940 % Max / hCB2 cAMP (+) CP55,940 % Max: % of maximal CP55,940 response; for hCB2 cAMP (+) CP55,940 % Max: presence of EC20 CP55,940
# Method: Assays were performed by Eurofins Discovery (Freemont, CA, USA). cAMP Hunter cell lines were expanded from freezer stocks according to standard procedures. Human CB2 cells were seeded in a total volume of 20 μL into white-walled, 384-well microplates and incubated at 37 °C for the appropriate time prior to testing. cAMP modulation was determined using the DiscoverX HitHunter cAMP XS+ assay. For agonist determination, cells were incubated with samples in the presence of EC80 forskolin to induce a response. Media was aspirated from cells and replaced with 10 μL HBSS/10 mM HEPES. Intermediate dilution of sample stocks was performed to generate 4× sample in assay buffer, and 5 μL of 4× sample was added to cells. Then, 5 μL of 4× EC80 forskolin diluted in HBSS/HEPES was added and incubated at 37 °C for 30 min. The final assay vehicle concentration was 1%. For allosteric determination, cells were pre-incubated with the sample followed by agonist induction at the EC20 concentration. Media was aspirated from cells and replaced with 10 μL HBSS/10 mM HEPES. Intermediate dilution of sample stocks was performed to generate 4× samples in assay buffer. Then, 5 μL of 4× compound was added to the cells and incubated at room temperature or 37 °C for 5 min. Subsequently, 5 μL of 4× EC20 agonist was added to the cells and incubated at 37 °C for 30 min. EC80 forskolin was included.
# After appropriate compound incubation, the assay signal was generated by incubation with 5 μL cAMP XS+ Ab reagent, followed by 20 μL cAMP XS+ ED/CL lysis cocktail for one hour at room temperature. Then, 20 μL cAMP XS+ EA reagent was added and incubated for two hours at room temperature. Microplates were read following signal generation with a PerkinElmer Envision^TM instrument for chemiluminescent signal detection.
# Compound activity was analyzed using the CBIS data analysis suite (ChemInnovation, San Diego, CA, USA). For agonist mode assays, percentage activity was calculated using the following formula: % Activity = 100% × (1 − (mean RLU of test sample − mean RLU of MAX control)/(mean RLU of vehicle control − mean RLU of MAX control)).
# For Gi positive allosteric mode assays, percentage modulation was calculated using the following formula: % Modulation = 100% × (1 − (mean RLU of test sample − mean RLU of MAX control)/(mean RLU of EC20 control − mean RLU of MAX control)).
# [3] = hCB2 cAMP (+) CP55,940 pEC50, presence of EC20 CP55,940, EC80 forskolin
# [4] = hCB2 cAMP (−) CP55,940 pEC50, absence of CP55,940, EC80 forskolin
# Sequence of Human CB2 (P34972 whole entry): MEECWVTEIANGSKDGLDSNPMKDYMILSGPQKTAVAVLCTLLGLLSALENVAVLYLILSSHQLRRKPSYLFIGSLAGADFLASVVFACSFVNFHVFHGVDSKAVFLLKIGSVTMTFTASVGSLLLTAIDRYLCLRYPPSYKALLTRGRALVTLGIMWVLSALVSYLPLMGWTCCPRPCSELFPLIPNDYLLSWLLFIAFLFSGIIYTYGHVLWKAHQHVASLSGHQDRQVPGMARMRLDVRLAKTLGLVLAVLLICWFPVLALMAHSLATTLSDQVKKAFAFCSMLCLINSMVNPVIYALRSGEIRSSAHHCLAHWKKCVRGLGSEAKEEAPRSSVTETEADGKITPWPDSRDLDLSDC
"EC50 ([1]; 0.5 nM [3H]CP55,940, tested up to 30 µM, read-out: rCB2 Binding pEC50 (incomplete displacement) (converted))","hCB2 cAMP (−) CP55,940 pEC50 ([2]; absence of CP55,940, EC80 forskolin)","EC50 ([2]; presence of EC20 CP55,940, EC80 forskolin, read-out: hCB2 cAMP (+) CP55,940 pEC50 (converted))",SMILES,EC50 [1],rCB2 Binding Affinity pKi ± SEM [1],"rCB2 Binding % Max ± SEM ([1]; 0.5 nM [3H]CP55,940)","hCB2 cAMP (−) CP55,940 % Max [2]","EC50 [2, 3]","EC50 [2, 4]","hCB2 cAMP (+) CP55,940 % Max [2]",Ki [1]
–,–,–,"O=C(NCC1CCOCC1)c1cnc(Nc2ccc(Cl)cc2Cl)nc1C(F)(F)F [GW-842,166X, 2-(2,4-dichloroanilino)-N-(oxan-4-ylmethyl)-4-(trifluoromethyl)pyrimidine-5-carboxamide]",> 10 µM,Incomplete,22 ± 2%,120%,5.13 µM,2.04 µM,119%,–
–,–,–,"CC1(Cc2ccccc2)COc2cc(C(=O)N3CCCCC3)ccc21 (centres unmarked) [MDA7, 1-[(3-benzyl-3-methyl-2,3-dihydro-1-benzofuran-6-yl)carbonyl]piperidine]",–,–,5.3 ± 1.7%,108%,> 10 µM,> 10 µM,111%,0.251 µM
> 10 µM,< 5.0,> 10 µM,COc1c(C)c2c(c(O)c1C/C=C(\C)CCC(=O)OCCN1CCOCC1)C(=O)OC2 [Mycophenolate mofetil],–,Incomplete,20 ± 1%,46%,–,–,41%,–
